These results are taken from PubChem BioAssay (NCI).

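Values below derive from 48-hour exposures of cells grown in 96-well plates, with endpoints linearly interpolated between the two concentrations bracketing the appropriate inhibition level. Abbreviation: GI50, concentration required for 50% inhibition of growth. TGI marks complete inhibition of growth.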 Bounds are passed on as bounds.

Some test systems named below: CCRF-CEM leukemia; NCI-H522 lung; EKVX NSCLC; NCI-H460 lung; SK-MEL-5 melanoma; SK-OV-3 ovarian; HL-60(TB) leukemia; A498 renal; A549 NSCLC.
Holding throughout (assay): NCI tumour cell line growth inhibition, 48 h

For `COc1ccccc1/C=C/C(=O)c1sc(-c2cccnc2)nc1C`, the TGI in the experiment on CCRF-CEM leukemia, in the experiment on NCI-H522 lung, in the experiment on EKVX NSCLC, with NCI-H460 lung, with SK-MEL-5 melanoma and in the experiment on SK-OV-3 ovarian was over 100 µM throughout. The TGI in the experiment on HL-60(TB) leukemia, in the experiment with A498 renal and in the experiment on A549 NSCLC was over 100 µM throughout.
As to `COc1ccc(-c2cc(-c3ccc(Nc4nc(Nc5ccc(Cl)cc5)nc(Nc5ccc(Cl)cc5)n4)cc3)no2)cc1`, the GI50 in the experiment on CCRF-CEM leukemia is 3.27 µM; with NCI-H522 lung, 7.67 µM; in the experiment on EKVX NSCLC it was 10.2 µM; with NCI-H460 lung, 5.58 µM; in the experiment on SK-MEL-5 melanoma it was 5.08 µM; in the experiment with SK-OV-3 ovarian, 25.8 µM. The GI50 in the experiment on HL-60(TB) leukemia was 1.87 µM; in the experiment on A498 renal it was 14 µM; with A549 NSCLC, 16.4 µM. In addition, the TGI came out at 11.6 µM in the experiment with CCRF-CEM leukemia; 25.5 µM with NCI-H522 lung; 85.6 µM with EKVX NSCLC; 25.2 µM in the experiment with NCI-H460 lung; 20.3 µM in the experiment with SK-MEL-5 melanoma; 79.4 µM with SK-OV-3 ovarian. Moreover, the results for the TGI with HL-60(TB) leukemia, with A498 renal and in the experiment on A549 NSCLC were 12.1 µM, 61.1 µM and 84.7 µM, respectively.
On to `C[C@H]1CCC/C=C/[C@@H]2C[C@H](O)C[C@H]2[C@H](O)[C@H](S(=O)c2ccc(O)cc2)CC(=O)O1` (some centres not stated), for which the GI50 in the experiment on CCRF-CEM leukemia was 0.048 µM; with NCI-H522 lung it was 0.141 µM; with EKVX NSCLC, 0.0824 µM; in the experiment with NCI-H460 lung it was 0.0168 µM; in the experiment with SK-OV-3 ovarian, under 0.0205 µM; in the experiment with HL-60(TB) leukemia, 0.0338 µM. For the same molecule, the results for the GI50 in the experiment with A498 renal and in the experiment with A549 NSCLC were 0.0307 µM and 0.0422 µM, respectively. Also, the TGI in the experiment with NCI-H522 lung is 3.34 µM; in the experiment with EKVX NSCLC, over 36.9 µM; in the experiment on NCI-H460 lung, 0.0703 µM; with SK-MEL-5 melanoma, 0.121 µM; in the experiment with HL-60(TB) leukemia it was 0.139 µM; in the experiment on A498 renal, 0.0716 µM. The TGI in the experiment with A549 NSCLC is over 100 µM.
With `Cc1cc(NC(=O)c2ccc(NS(=O)(=O)CCO)cc2N2CCC3(CC2)CC3)nc(N2CCC(F)(F)CC2)n1`, the GI50 in the experiment with CCRF-CEM leukemia was 10 µM; in the experiment on NCI-H522 lung, 12.9 µM; in the experiment on EKVX NSCLC, 14.2 µM; in the experiment with NCI-H460 lung, 12.6 µM; with SK-MEL-5 melanoma, 2.7 µM; with SK-OV-3 ovarian it was 11.1 µM. In addition, the results for the GI50 with HL-60(TB) leukemia, in the experiment on A498 renal and in the experiment on A549 NSCLC were 19.4 µM, 16.7 µM and 14.2 µM, respectively. For the same molecule, the TGI with CCRF-CEM leukemia is over 66 µM; in the experiment with NCI-H522 lung, 27.3 µM; with EKVX NSCLC, 28.8 µM; in the experiment on NCI-H460 lung, 26.8 µM; in the experiment with SK-MEL-5 melanoma it was 19.7 µM; in the experiment with SK-OV-3 ovarian it was 26 µM. Moreover, the TGI was over 57.1 µM in the experiment with HL-60(TB) leukemia, 31 µM with A498 renal and 30.4 µM in the experiment on A549 NSCLC.
In the case of `COc1cc(N2CCC(N3CCN(C)CC3)CC2)ccc1Nc1ncc(Cl)c(Nc2ccccc2P(C)(C)=O)n1`, the GI50 in the experiment on CCRF-CEM leukemia is 4.41 µM; in the experiment on NCI-H522 lung, 0.759 µM; in the experiment with EKVX NSCLC, 0.472 µM; with NCI-H460 lung, 2.47 µM; in the experiment with SK-MEL-5 melanoma, 11.9 µM; in the experiment with SK-OV-3 ovarian, 0.992 µM. In addition, the GI50 in the experiment with HL-60(TB) leukemia is 1.67 µM; in the experiment on A498 renal, 0.305 µM; in the experiment with A549 NSCLC it was 1.21 µM. The TGI in the experiment with CCRF-CEM leukemia is 98 µM; with NCI-H522 lung it was 17.3 µM; with EKVX NSCLC, over 100 µM; in the experiment with NCI-H460 lung, over 40 µM; in the experiment with SK-MEL-5 melanoma, over 100 µM; in the experiment on SK-OV-3 ovarian it was 5 µM. Further, the TGI with HL-60(TB) leukemia was over 35.6 µM; in the experiment on A498 renal it was 1.12 µM; in the experiment on A549 NSCLC it was 14.1 µM.
Take `O=S(=O)(NCCNc1cc(-c2cn(-c3ccccc3)nc2-c2cccc(O)c2)ccn1)c1ccc(C(F)(F)F)cc1`: the GI50 is 3.27 µM in the experiment with CCRF-CEM leukemia; 1.67 µM in the experiment with NCI-H522 lung; 2.25 µM in the experiment with EKVX NSCLC; 3.23 µM in the experiment on NCI-H460 lung; 1.78 µM with SK-MEL-5 melanoma; 3.79 µM in the experiment on SK-OV-3 ovarian. Also, the GI50 in the experiment with HL-60(TB) leukemia is 2.17 µM; in the experiment on A498 renal, 3.05 µM; in the experiment on A549 NSCLC it was 3.89 µM. The TGI in the experiment with CCRF-CEM leukemia came to 8.05 µM; in the experiment with NCI-H522 lung, 3.8 µM; with EKVX NSCLC it was 11.8 µM; with NCI-H460 lung, 10.1 µM; in the experiment on SK-MEL-5 melanoma, 3.36 µM; in the experiment on SK-OV-3 ovarian, 16.2 µM. The TGI in the experiment with HL-60(TB) leukemia was 4.77 µM; in the experiment with A498 renal, 14.5 µM; in the experiment on A549 NSCLC it was 18.2 µM.
Regarding `CCCCCCCCCCCCCCCCC1=CC(=O)C=C(OC)C1=O`, the TGI in the experiment on CCRF-CEM leukemia, in the experiment with NCI-H522 lung, in the experiment on EKVX NSCLC, with NCI-H460 lung, with SK-MEL-5 melanoma and in the experiment on SK-OV-3 ovarian was over 100 µM in each case. The TGI in the experiment with HL-60(TB) leukemia, with A498 renal and in the experiment on A549 NSCLC was over 100 µM each time.
In the case of `COc1ccc(OC)c(/C=C/c2nnc(Nc3ccc(Cl)cc3)o2)c1`, the GI50 in the experiment on CCRF-CEM leukemia was over 100 µM; in the experiment with NCI-H522 lung, 7.13 µM; in the experiment with EKVX NSCLC, 40.5 µM; in the experiment with NCI-H460 lung, 3.77 µM; in the experiment on SK-MEL-5 melanoma, 7.17 µM; with SK-OV-3 ovarian it was 2.79 µM. The GI50 is over 100 µM in the experiment on HL-60(TB) leukemia, 1.87 µM in the experiment with A498 renal and 3.67 µM in the experiment on A549 NSCLC. Further, the TGI in the experiment on CCRF-CEM leukemia was over 100 µM; with NCI-H522 lung, 83.7 µM; with EKVX NSCLC, over 100 µM; with NCI-H460 lung, over 100 µM; in the experiment on SK-MEL-5 melanoma, over 100 µM; with SK-OV-3 ovarian, 7.85 µM. Moreover, the figures for the TGI with HL-60(TB) leukemia, in the experiment with A498 renal and in the experiment on A549 NSCLC were over 100 µM, 7.76 µM and 17.8 µM, respectively.
With `CCN(Cc1ccc(F)cc1)c1ccc(CO)c(Cl)c1`, the GI50 is 15.9 µM in the experiment with CCRF-CEM leukemia; 14.5 µM in the experiment on NCI-H522 lung; 17.5 µM in the experiment with EKVX NSCLC; 0.213 µM in the experiment with NCI-H460 lung; 1.86 µM with SK-MEL-5 melanoma; 3.86 µM in the experiment on SK-OV-3 ovarian. Further, the values for the GI50 in the experiment on HL-60(TB) leukemia, with A498 renal and in the experiment with A549 NSCLC were 3.63 µM, 0.019 µM and 1.16 µM, respectively. The TGI in the experiment with CCRF-CEM leukemia turned out to be 62.6 µM; in the experiment with NCI-H522 lung, 40.1 µM; in the experiment on EKVX NSCLC, 57.5 µM; with NCI-H460 lung, 11.7 µM; with SK-MEL-5 melanoma it was 15.2 µM; in the experiment on SK-OV-3 ovarian, 25.2 µM. For the same molecule, the TGI is 23.3 µM with HL-60(TB) leukemia, 0.0936 µM with A498 renal and 22.6 µM with A549 NSCLC.
As for `CCOC(=O)[C@H](CSSc1ncnc2cc[nH]c12)NC(=O)[C@@H](C)c1ccc2cc(OC)ccc2c1`, the GI50 was 0.532 µM in the experiment on CCRF-CEM leukemia; 0.303 µM in the experiment with NCI-H522 lung; over 100 µM in the experiment with EKVX NSCLC; 3.04 µM in the experiment with NCI-H460 lung; 2.25 µM in the experiment with SK-MEL-5 melanoma; 2.77 µM in the experiment with SK-OV-3 ovarian. Further, the GI50 in the experiment with HL-60(TB) leukemia was 1.04 µM; in the experiment with A498 renal, 6.96 µM; with A549 NSCLC, 6.36 µM. For the same molecule, the TGI in the experiment with CCRF-CEM leukemia is over 100 µM; in the experiment with NCI-H522 lung it was over 31.5 µM; in the experiment on EKVX NSCLC, over 100 µM; in the experiment on NCI-H460 lung it was over 100 µM; in the experiment on SK-MEL-5 melanoma, over 32.5 µM; with SK-OV-3 ovarian, over 100 µM. The TGI in the experiment with HL-60(TB) leukemia is over 100 µM; with A498 renal it was over 50.9 µM; with A549 NSCLC it was over 100 µM.
As to `CN1CCN(C(=O)c2ccc(NC(=O)Nc3ccc(N(C)c4ccnc(Nc5ccc(CS(C)(=O)=O)cc5)n4)cc3)cc2)CC1`, the GI50 with CCRF-CEM leukemia was 7.07 µM; in the experiment on NCI-H522 lung it was 7.65 µM; in the experiment on EKVX NSCLC, over 25 µM; in the experiment on NCI-H460 lung, 11.8 µM; in the experiment with SK-MEL-5 melanoma, 12.4 µM; with SK-OV-3 ovarian, over 25 µM. Moreover, the GI50 with HL-60(TB) leukemia is over 19.4 µM; in the experiment on A498 renal, over 25 µM; in the experiment with A549 NSCLC, over 23.3 µM. Besides, the TGI in the experiment on CCRF-CEM leukemia, in the experiment with NCI-H522 lung, in the experiment with EKVX NSCLC, in the experiment on NCI-H460 lung, in the experiment on SK-MEL-5 melanoma and in the experiment on SK-OV-3 ovarian was over 25 µM in each case. Besides, the TGI with HL-60(TB) leukemia, in the experiment on A498 renal and in the experiment on A549 NSCLC was over 25 µM in each case.
On to `Cc1cc(Cl)ccc1Nc1sc(C(=O)c2cc3cc(Cl)ccc3o2)c(N)c1C#N`, for which the TGI with CCRF-CEM leukemia is over 52.8 µM; with NCI-H522 lung, 21.9 µM; in the experiment with EKVX NSCLC it was over 100 µM; in the experiment with NCI-H460 lung, over 64.3 µM; in the experiment with SK-MEL-5 melanoma, over 100 µM; in the experiment on SK-OV-3 ovarian it was 57 µM. In addition, the TGI in the experiment on HL-60(TB) leukemia was over 100 µM; in the experiment with A498 renal, 19.2 µM; in the experiment on A549 NSCLC it was over 54.7 µM.
Regarding `[N-]=[N+]=NC1(N=[N+]=[N-])C(=O)NN=C(c2ccccc2)C1=O` (configuration not stated), the TGI in the experiment with CCRF-CEM leukemia was 83.9 µM; with NCI-H522 lung, over 100 µM; in the experiment with EKVX NSCLC it was over 100 µM; in the experiment on NCI-H460 lung, over 100 µM; in the experiment on SK-OV-3 ovarian, over 100 µM; in the experiment on HL-60(TB) leukemia, over 100 µM. Further, the TGI with A498 renal and in the experiment on A549 NSCLC was over 100 µM each time.
`O=c1[nH]cnc2c(C3OC(CO)C(O)C3O)[nH]nc12` (configuration not stated): the TGI with CCRF-CEM leukemia is over 100 µM; in the experiment on NCI-H522 lung, 42.7 µM; in the experiment with EKVX NSCLC it was over 100 µM; in the experiment with NCI-H460 lung, over 100 µM; in the experiment with SK-MEL-5 melanoma, over 100 µM; in the experiment on SK-OV-3 ovarian, 28.3 µM. In addition, the TGI in the experiment on HL-60(TB) leukemia and with A498 renal was over 100 µM in each case.
